Patent US5004735A, “Pharmaceutical compositions for the inhibition of tumor metastasis” (Nisshin Flour Milling Co., Ltd., priority 1988, dated 1991)

Key:
[1] = tested on: B16-F10 melanoma; assay: Inhibition of lung metastasis of B16-F10 melanoma in mice, intraperitoneal olive oil solution (Example 3); format: in vivo, male C57BL/6 mice
Description: (§1) Experimental animal: male C57BL/6 mice (6 weeks old)
(§2) Tumor cell line: B16-F10 melanoma
Compounds B, D, E and F were tested for the inhibitory effect on tumor metastasis using the same experimental animal and tumor cell line as in Example 1. Test method: Mice were given 4×10^5 B16-F10 melanoma cells in 0.05 ml of serum-free RPMI 1640 medium in the foot pad of the left hind leg. A solution of Compounds B, D, E or F (0.1 or 0.2 mg) in 0.2 ml of olive oil was administered intraperitoneally every other day from day 1 to day 27 after inoculation of the melanoma cells. During this period, the size of the inoculated tumors was observed macroscopically. On day 28, the tumor-bearing legs were cut from the mice and on day 42 the mice were sacrificed. The number of metastatic nodules formed on the lung surface was counted for each mouse. 10 Animals were used per each group except for control group wherein 20 animals were used.

[2] = tested on: B16-F10 melanoma cells; assay: L-PHA-sensitivity of cultured tumor cells (Example 4); format: cell-based; settings: Mus musculus, 10 μl of 50 μg/ml test compound in DMSO added on day 1 to 2 ml medium, L-PHA 50 μl of 50 μg/ml on day 2, count day 4, control 42.0, read-out: Growth inhibition by L-PHA
Description: Tumor cell culture: B16-F10 melanoma cells were incubated in RPMI 1640 medium containing 10% fetal bovine serum and antibiotics at 37° C.
Test method: B16-F10 cells (5×10^4) in 2 ml of the medium were seeded onto a plastic dish and incubation was started. On day 1, 10 μl of dimethylsulfoxide (control group) or a test compound suspended in 10 μl of dimethylsulfoxide at a concentration of 50 μg/ml (test group) was added. On day 2, 50 μl each of water was added to a half of each of the control group and the test group, and 50 μl of 50 μg/ml L-PHA solution in water was added to a remaining half. On day 4, the number of cells was counted in L-PHA-treated and untreated groups and % growth inhibition by L-PHA was calculated according to the following formula:
% Growth Inhibition=(1-N/N0)×100
in which N denotes a number of cells in the presence of L-PHA and N0 denotes a number of cells in the absence thereof.

[3] = tested on: B16-F10 melanoma; assay: Inhibition of tumor metastasis to lung by intravenous oily emulsions (Example 8); format: in vivo, male C57BL/6 mice; settings: oily emulsion i.v., 9 times every three days
Description: Male C57BL/6 mice (6 weeks old) were given 4×10^5 B16-F10 melanoma cells in 0.05 ml of serum-free RPMI 1640 medium in the foot pad of the left hind leg. […] The tumor-bearing legs were cut on day 27 and the mice were sacrificed on day 41. The number of metastatic nodules formed in the lung was counted for each mouse. 10 Animals were used per each group. % Inhibition of tumor metastasis to lung was calculated on the basis of the following formula.
% Inhibition of tumor metastasis to lung=(1-M/M0)×100

[4] = tested on: B16-F10 melanoma; assay: Inhibition of lung metastasis of B16-F10 melanoma in mice, intraperitoneal suspension (Examples 1 and 2); format: in vivo, male C57BL/6 mice; settings: for Number of metastatic nodules mean ± standard error / Inhibition of metastasis: day 1 to 27, day 42; for Number of metastatic nodules mean ± standard error: lung surface; for Inhibition of metastasis: lung
Description: as §1, §2
Test method: Mice were given 4×10^5 B16-F10 melanoma cells in 0.05 ml of serum-free RPMI 1640 medium in the foot pad of the left hind leg. […] During this period, the size of the inoculated tumor was observed macroscopically. On day 28, tumor-bearing legs were cut from the mice and on day 42 the mice were sacrificed. The number of metastatic nodules formed on the lung surface was counted for each mouse. 10 Animals were used per each group
Compounds G and H were tested for the inhibitory effect on tumor metastasis.

SMILES | Growth of the inoculated tumors (in words) ([1]; 10 mg/Kg i.p., compared with Control) | Number of metastatic nodules mean ± standard error ([1]; 10 mg/kg i.p. in olive oil every other day, day 1 to 27, lung surface, day 42) | Inhibition of metastasis ([1]; 10 mg/kg i.p. in olive oil every other day, day 1 to 27, lung, day 42) [%] | inhibition at 50 µg/mL (stock) [2] [%] | Inhibition of tumor metastasis to lung ([3]; 0.8 mg/kg) [%] | Number of metastatic nodules mean ± standard error ([4]; 5 mg/kg i.p. every other day) | Inhibition of metastasis ([4]; 5 mg/kg i.p. every other day) [%] | Number of metastatic nodules mean ± standard error ([4]; 10 mg/kg i.p. every other day) | Inhibition of metastasis ([4]; 10 mg/kg i.p. every other day) [%] | Inhibition of tumor metastasis to lung ([3]; 0.3 mg/kg) [%] | Inhibition of tumor metastasis to lung ([3]; 2.0 mg/kg) [%] | Inhibitory effect on tumor metastasis (in words) ([4]; Example 2, i.p. suspension, same method as Example 1)
CC(C)=CCC/C(C)=C/CC/C(C)=C/CC/C(C)=C/CC/C(C)=C/CC/C(C)=C/CC/C(C)=C/CC/C(C)=C/CC/C(C)=C/CCC(C)CCO (centres unmarked) [Compound B] | about the same as that of Control | 11.7 ± 6.2 | 63 | 36.6 | 54 | – | – | – | – | – | – | –
CC(C)=CCC/C(C)=C/CC/C(C)=C/CC/C(C)=C/CC/C(C)=C/CC/C(C)=C/CC/C(C)=C/CC/C(C)=C/CC/C(C)=C/CCC(C)CCOP(=O)(O)O (centres unmarked) [Compound C] | – | – | – | 32.7 | 78 | 1.2 ± 0.8 | 94 | 0 | 100 | 79 | 85 | –
CC(C)=CCC/C(C)=C/CC/C(C)=C/CC/C(C)=C/CC/C(C)=C/CC/C(C)=C/CC/C(C)=C/CC/C(C)=C/CC/C(C)=C/CCC(C)CCOP(=O)(O)O (centres unmarked) [Compound G] | – | – | – | – | – | – | – | – | – | – | – | essentially the same as that of Compound C
